Assay [1] has as its target T1, SARS-CoV-2 PLpro (nsp3 1564–1878) (Severe acute respiratory syndrome coronavirus 2, UniProt P0DTD1). In words: biochemical. Also noted: FRET-quenched peptide (Pro3) cleavage by PLpro, 10 min pre-incubation, slope over 20 min, normalised to no-compound control. The note with it: read-out: % of control remaining.
Assay [2] concerns the target T1, SARS-CoV-2 PLpro (nsp3 1564–1878). In words: biochemical. Also noted: FRET-quenched peptide (Pro3) cleavage by PLpro, 10 min pre-incubation, slope over 20 min, normalised to no-compound control. The note with it: read-out: % of control remaining. This is another data set of the same source.

Where a name gives a salt, the structure may show the parent alone. Read-outs that look alike come from different tables or passages of the source. Where a SMILES comes first, the peptide text is derived from it. The star is where a group is joined. Cbz = O=C(OCc1ccccc1)*

On to `CCn1cnc2c(Nc3cccc(Cl)c3)nc(N[C@@H]3CCCC[C@@H]3N)nc21` [CGP-74514A hydrochloride], for which, in assay [1] (Well no.=268, low concentration screen), the remaining activity at 1.25 µM worked out at 92.8%. In assay [2] (Well no.=268, high concentration screen), the remaining activity at 3.75 µM was 94.1%.
As to `COc1ccc(-n2[nH]c3c(cnc4ccccc43)c2=O)cc1` [CGS 9895], the remaining activity at 1.25 µM in assay [1] (Well no.=5590, low concentration screen) was 99.6%. For the same compound, the remaining activity at 3.75 µM in assay [2] (Well no.=5590, high concentration screen) came out at 96.5%.
As for `CCNC(=O)[C@H]1O[C@@H](n2cnc3c(N)nc(NCCc4ccc(CCC(=O)O)cc4)nc32)[C@H](O)[C@@H]1O` [CGS 21680 (Hydrochloride)], the remaining activity at 1.25 µM in assay [1] (Well no.=7001, low concentration screen) was 99.7%; in assay [1] (Well no.=8417, low concentration screen) it was 95.9%. Further, the remaining activity at 3.75 µM in assay [2] (Well no.=7001, high concentration screen) is 95.1%; in assay [2] (Well no.=8417, high concentration screen), 94.7%.
As to `CN1CCN(c2nc3cc(C(F)(F)F)ccc3n3cccc23)CC1` [CGS-12066A maleate], the remaining activity at 1.25 µM in assay [1] (Well no.=437, low concentration screen) is 102%. In addition, the remaining activity at 3.75 µM in assay [2] (Well no.=437, high concentration screen) is 101%.
`Nc1nc2ccc(Cl)cc2c2nc(-c3ccco3)nn12` [CGS-15943]: in assay [1] (Well no.=393, low concentration screen), the remaining activity at 1.25 µM was 104%. Besides, the remaining activity at 3.75 µM in assay [2] (Well no.=393, high concentration screen) turned out to be 104%.
On to `CCNC(=O)[C@H]1O[C@@H](n2cnc3c(N)nc(NCCc4ccc(CCC(=O)O)cc4)nc32)[C@H](O)[C@@H]1O` [CGS-21680 hydrochloride], for which the remaining activity at 1.25 µM in assay [1] (Well no.=391, low concentration screen) is 105%. Moreover, in assay [2] (Well no.=391, high concentration screen), the remaining activity at 3.75 µM was 99.7%.
Regarding `CS(=O)(=O)N1CCc2c(-c3cnc(N)nc3)nc(N3CCOCC3)nc21` [CH5132799], the remaining activity at 1.25 µM in assay [1] (Well no.=5348, low concentration screen) is 95.8%. Also, the remaining activity at 3.75 µM in assay [2] (Well no.=5348, high concentration screen) is 96%.
`NC(=O)CCCSc1nc(N)nc(-c2c(Cl)cc3c4c(cccc24)COC3)n1` [CH5138303]: the remaining activity at 1.25 µM in assay [1] (Well no.=8668, low concentration screen) came out at 95%. Further, in assay [2] (Well no.=8668, high concentration screen), the remaining activity at 3.75 µM is 90.8%.
In the case of `CCc1cc2c(cc1N1CCC(N3CCOCC3)CC1)C(C)(C)c1[nH]c3cc(C#N)ccc3c1C2=O` [CH5424802], in assay [1] (Well no.=5077, low concentration screen), the remaining activity at 1.25 µM was 104%. The remaining activity at 3.75 µM in assay [2] (Well no.=5077, high concentration screen) stood at 104%.
For the compound `CC[C@H](C)[C@H](NC(=O)OCc1ccccc1)C(=O)N[C@@H](CCC(=O)O)C(=O)N1CCC[C@H]1C(=O)N[C@@H](Cc1ccccc1)C(=O)OC` [CH 5450] (Cbz-IEPF-OMe), the remaining activity at 1.25 µM in assay [1] (Well no.=8516, low concentration screen) is 101%. Moreover, in assay [2] (Well no.=8516, high concentration screen), the remaining activity at 3.75 µM was determined as 102%.
As for `Cc1ccccc1N=Nc1ccc(NC(=O)c2ccnn2C)c(C)c1` [CH-223191], the remaining activity at 1.25 µM in assay [1] (Well no.=5835, low concentration screen) came out at 97.1%; in assay [1] (Well no.=7892, low concentration screen) it was 99.1%. Further, the remaining activity at 3.75 µM in assay [2] (Well no.=5835, high concentration screen) was determined as 98.7%; in assay [2] (Well no.=7892, high concentration screen), 95.5%.
For the compound `Cc1cnc(-c2cnc(NCCNc3ccc(C#N)cn3)nc2-c2ccc(Cl)cc2Cl)[nH]1` [CHIR99021], the remaining activity at 1.25 µM in assay [1] (Well no.=5511, low concentration screen) turned out to be 99.8%. Further, the remaining activity at 3.75 µM in assay [2] (Well no.=5511, high concentration screen) amounted to 101%.
In the case of `O=c1[nH]c2ccc(Cl)cc2c(N[C@@H]2CN3CCC2CC3)c1-c1nc2ccccc2[nH]1` [CHIR-124], the remaining activity at 1.25 µM in assay [1] (Well no.=5338, low concentration screen) worked out at 96.2%. The remaining activity at 3.75 µM in assay [2] (Well no.=5338, high concentration screen) was determined as 97.2%.
For the compound `CN1CCN(c2ccc3nc(-c4c(N)c5c(F)cccc5[nH]c4=O)[nH]c3c2)CC1` [CHIR-258], the remaining activity at 1.25 µM in assay [1] (Well no.=2757, low concentration screen) was 96.4%. For the same compound, the remaining activity at 3.75 µM in assay [2] (Well no.=2757, high concentration screen) was 95.3%.
Turning to `Nc1nc(NCCNc2ncc(-n3ccnc3)c(-c3ccc(Cl)cc3Cl)n2)ccc1[N+](=O)[O-]` [CHIR-98014], the remaining activity at 1.25 µM in assay [1] (Well no.=5035, low concentration screen) was 101%. Further, the remaining activity at 3.75 µM in assay [2] (Well no.=5035, high concentration screen) came out at 96.8%.
For the compound `CC(=O)Nc1ccc(C(=O)Nc2ccccc2N)cc1` [CI994 (Tacedinaline)], the remaining activity at 1.25 µM in assay [1] (Well no.=5165, low concentration screen) was determined as 103%. The remaining activity at 3.75 µM in assay [2] (Well no.=5165, high concentration screen) came to 101%.
Consider `O=C(NOCC1CC1)c1ccc(F)c(F)c1Nc1ccc(I)cc1Cl` [CI-1040], for which, in assay [1] (Well no.=2741, low concentration screen), the remaining activity at 1.25 µM was found to be 100%. In assay [2] (Well no.=2741, high concentration screen), the remaining activity at 3.75 µM was found to be 102%.
Consider `O=C1NCCCc2c1oc1ccc(O)cc21` [CID755673], for which, in assay [1] (Well no.=6214, low concentration screen), the remaining activity at 1.25 µM was 104%. The remaining activity at 3.75 µM in assay [2] (Well no.=6214, high concentration screen) worked out at 96%.
As to `Cc1cc2nc(NCCCO)n(CC(=O)c3cc(C(C)(C)C)c(O)c(C(C)(C)C)c3)c2cc1C` [CID2858522], in assay [1] (Well no.=5503, low concentration screen), the remaining activity at 1.25 µM was determined as 104%. In addition, the remaining activity at 3.75 µM in assay [2] (Well no.=5503, high concentration screen) came to 109%.
Consider `O=C(Nc1ccc(CN2CCOCC2)cc1)c1ccc(-c2cccc(Cl)c2)o1` [CID 2011756], for which the remaining activity at 1.25 µM in assay [1] (Well no.=6582, low concentration screen) is 97.3%. In addition, the remaining activity at 3.75 µM in assay [2] (Well no.=6582, high concentration screen) stood at 101%.
On to `Cc1ccc(-c2n[nH]c3c2C(c2cccc(O)c2)N(c2ccc(C(=O)O)cc2)C3=O)cc1` (centres unmarked) [CID 16020046], for which the remaining activity at 1.25 µM in assay [1] (Well no.=7821, low concentration screen) was found to be 96.2%. Besides, the remaining activity at 3.75 µM in assay [2] (Well no.=7821, high concentration screen) worked out at 102%.
In the case of `O=S(=O)(c1ccc2c(c1)C(=NO)c1cc(S(=O)(=O)N3CCCCC3)ccc1-2)N1CCCCC1` [CIL56], the remaining activity at 1.25 µM in assay [1] (Well no.=6774, low concentration screen) was 98.2%. For the same compound, the remaining activity at 3.75 µM in assay [2] (Well no.=6774, high concentration screen) was found to be 95.6%.
Regarding `C[C@H](NC(=O)c1cc(Cl)ccc1Oc1ccc(F)cc1)c1ccc(C(=O)O)cc1` [CJ-42794], the remaining activity at 1.25 µM in assay [1] (Well no.=6222, low concentration screen) was found to be 98%. Also, the remaining activity at 3.75 µM in assay [2] (Well no.=6222, high concentration screen) came out at 94.2%.
As to `O=C1CSC(c2cccc(Br)c2)N1c1cc(Cl)ccc1O` (centres unmarked) [CK-548], the remaining activity at 1.25 µM in assay [1] (Well no.=6054, low concentration screen) was determined as 97.5%. Also, the remaining activity at 3.75 µM in assay [2] (Well no.=6054, high concentration screen) came out at 96.3%.
Regarding `Cc1[nH]c2ccccc2c1CCNC(=O)c1cccs1` [CK-636], the remaining activity at 1.25 µM in assay [1] (Well no.=5636, low concentration screen) came to 102%. In assay [2] (Well no.=5636, high concentration screen), the remaining activity at 3.75 µM was 100%.
With `Cc1[nH]c2ccccc2c1CCNC(=O)c1ccccc1F` [CK-666], the remaining activity at 1.25 µM in assay [1] (Well no.=5720, low concentration screen) is 95.1%. In addition, in assay [2] (Well no.=5720, high concentration screen), the remaining activity at 3.75 µM stood at 95.4%.
`C[C@H](Cc1ccc2c(c1)OC(C(=O)O)(C(=O)O)O2)NC[C@H](O)c1cccc(Cl)c1` [CL 316,243]: in assay [1] (Well no.=276, low concentration screen), the remaining activity at 1.25 µM amounted to 96.9%. The remaining activity at 3.75 µM in assay [2] (Well no.=276, high concentration screen) was determined as 101%.
As for `N#C[C@H]1[C@H](O)[C@@H](CO)O[C@H]1n1ccc(N)nc1=O` [CNDAC (hydrochloride)], the remaining activity at 1.25 µM in assay [1] (Well no.=7866, low concentration screen) came to 91.6%. For the same compound, the remaining activity at 3.75 µM in assay [2] (Well no.=7866, high concentration screen) is 94.8%.
Consider `N#Cc1cc2nc(O)c(O)nc2cc1[N+](=O)[O-]` [CNQX disodium], for which the remaining activity at 1.25 µM in assay [1] (Well no.=681, low concentration screen) came to 101%. The remaining activity at 3.75 µM in assay [2] (Well no.=681, high concentration screen) turned out to be 102%.
In the case of `CCc1cccc(N(C)C(=N)Nc2cccc3ccccc23)c1` [CNS-1102], the remaining activity at 1.25 µM in assay [1] (Well no.=366, low concentration screen) came to 99.2%. For the same compound, the remaining activity at 3.75 µM in assay [2] (Well no.=366, high concentration screen) was 100%.
As for `S=C(N/N=C1\CCCc2cccnc21)N1CCN(c2ccccn2)CC1` [COTI-2], in assay [1] (Well no.=6156, low concentration screen), the remaining activity at 1.25 µM was 109%. In assay [2] (Well no.=6156, high concentration screen), the remaining activity at 3.75 µM was 110%.
With `CCCCCCC(C)(C)c1ccc([C@@H]2C[C@H](O)CC[C@H]2CCCO)c(O)c1` [CP55940], the remaining activity at 1.25 µM in assay [1] was 104%. Also, the remaining activity at 3.75 µM in assay [2] came out at 106%.

The values are drawn from article PMC8286840, “Identifying SARS-CoV-2 antiviral compounds by screening for small molecule inhibitors of Nsp3 papain-like protease” (Biochemical Journal, 2021).
